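Growth conditions: 96-well plates. Treatment: test compound, 48 hours, 5 concentrations. Analysis: linear interpolation between bracketing concentrations; unreached endpoints set to highest concentration. GI50 is the concentration that inhibits growth by half.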 The source made the active and inactive calls. Cut-off read from the data, not from the text of the source: active = GI50 up to about 1.1 µM and inactive = higher. Non-standard residues stand in square brackets, D forms with d. Residues, ends and D or L forms follow the SMILES beside them. *: point of attachment. Phe(4-NO2) = N[CH](Cc1ccc([N+](=O)[O-])cc1)C(=O)O; Boc = CC(C)(C)OC(=O)*

Data on 13 compounds can be found in ChEMBL document CHEMBL1201862, “PubChem BioAssay data set” (2004).

Test systems include EKVX; A549; HT-29; DU-145; U-251; CAKI-1; UACC-62; MCF7; ACHN; IGROV-1; PC-3; HL-60; A498; UO-31; NCI/ADR-RES; Malme-3M; NCI-H522; HCC 2998; BT-549.
Experiment in all cases: NCI tumour cell line growth inhibition, 48 h

For the compound `N#Cc1nc(Cc2cccs2)oc1N`, the GI50 in the assay on EKVX, with A549, in the assay on HT-29, in the assay on DU-145, in the assay on U-251 and in the assay with CAKI-1 was > 100 µM (inactive) throughout. In addition, the GI50 with UACC-62, in the assay on MCF7, with ACHN, with IGROV-1, in the assay on PC-3 and with HL-60 was > 100 µM (inactive) each time. In addition, the figures for the GI50 in the assay on A498 and in the assay with UO-31 were > 100 µM (inactive) and 27.5 µM (inactive), respectively.
As for `CCC(C)C1=C(O)[N+]2([O-])Oc3ccc(-c4c(O)c(O)c(-c5ccc(O)cc5)c(OC(C)=O)c4OC(C)=O)cc3OC2(C(C)CC)C(=O)N1O` (configuration not stated), the GI50 in the assay with EKVX is 39.5 µM (inactive); with A549, > 50 µM (inactive); in the assay with HT-29, > 50 µM (inactive); with DU-145, > 50 µM (inactive); in the assay with U-251 it was > 50 µM (inactive); in the assay on CAKI-1, > 50 µM (inactive). For the same compound, the GI50 with NCI/ADR-RES was > 50 µM (inactive); in the assay with UACC-62, > 50 µM (inactive); in the assay with MCF7, > 50 µM (inactive); with Malme-3M it was > 50 µM (inactive); with NCI-H522, 23.5 µM (inactive); with ACHN it was > 50 µM (inactive). Further, the GI50 is > 50 µM (inactive) with IGROV-1; > 50 µM (inactive) with PC-3; 0.005 µM (active) in the assay on HCC 2998; > 50 µM (inactive) in the assay on HL-60; > 50 µM (inactive) in the assay on A498; > 50 µM (inactive) in the assay with UO-31.
Take `C/C(=N\Nc1nc2ccccc2n1C)c1ccncn1`: the GI50 is < 0.02 µM (active) in the assay with EKVX; 5.6 µM (inactive) with BT-549; 0.128 µM (active) with A549; < 0.0259 µM (active) in the assay with HT-29; 0.0904 µM (active) in the assay with U-251; < 0.01 µM (active) in the assay with CAKI-1. Also, the GI50 with NCI/ADR-RES was 0.0395 µM (active); with UACC-62 it was 0.125 µM (active); with MCF7, 0.0206 µM (active); in the assay with Malme-3M, < 0.0385 µM (active); in the assay on NCI-H522, 0.0393 µM (active); with ACHN, 0.0266 µM (active). In addition, the GI50 is 0.0233 µM (active) in the assay with IGROV-1; 3.39 µM (inactive) in the assay on HCC 2998; < 0.01 µM (active) in the assay on HL-60; 0.14 µM (active) in the assay with A498; 0.0391 µM (active) in the assay on UO-31.
Take `Cc1nc(C(N)=S)sc1C(=O)CC(=O)C(=O)Nc1ccc(Br)cc1`: the GI50 with EKVX, in the assay with BT-549, in the assay with A549, with HT-29, in the assay with U-251 and in the assay with CAKI-1 was > 100 µM (inactive) each time. In addition, the GI50 with NCI/ADR-RES is > 100 µM (inactive); in the assay with UACC-62 it was > 100 µM (inactive); with MCF7 it was > 100 µM (inactive); in the assay on Malme-3M it was > 100 µM (inactive); in the assay on NCI-H522 it was 66.4 µM (inactive); in the assay with ACHN it was > 100 µM (inactive). Moreover, the GI50 in the assay with IGROV-1, in the assay with PC-3, with HL-60, in the assay with A498 and in the assay on UO-31 was > 100 µM (inactive) throughout.
In the case of `COc1ccc2c(c1)C/C(=C\c1cccc3ccccc13)C2=O`, the GI50 was 18.5 µM (inactive) in the assay with EKVX; 5.26 µM (inactive) in the assay on BT-549; 6.89 µM (inactive) with A549; 4.91 µM (inactive) in the assay with HT-29; 8.71 µM (inactive) in the assay on U-251; > 100 µM (inactive) in the assay with CAKI-1. For the same compound, the GI50 was 4.66 µM (inactive) with NCI/ADR-RES; 12.5 µM (inactive) with UACC-62; 5.19 µM (inactive) in the assay with MCF7; 27.6 µM (inactive) in the assay on ACHN; 17.3 µM (inactive) with IGROV-1; 16.2 µM (inactive) with PC-3. Besides, the GI50 in the assay with HCC 2998 is 5.04 µM (inactive); with HL-60, 4.95 µM (inactive); in the assay on A498, 23.4 µM (inactive); in the assay with UO-31 it was 44.5 µM (inactive).
`CCOP(=O)(OCC)[C@]12C[C@@H](C)C=C[C@H]1COC2=O`: the GI50 in the assay on EKVX, in the assay on BT-549, with A549, in the assay on DU-145, in the assay on U-251 and with CAKI-1 was > 100 µM (inactive) in each case. In addition, the GI50 in the assay on UACC-62, in the assay on MCF7, with Malme-3M, in the assay on NCI-H522, in the assay on ACHN and with PC-3 was > 100 µM (inactive) throughout. Besides, the GI50 with HCC 2998, in the assay with A498 and in the assay with UO-31 was > 100 µM (inactive) throughout.
In the case of `COC(=O)CCC(NC(=O)OC(C)(C)C)C(=O)NC(Cc1ccc([N+](=O)[O-])cc1)C(=O)NC(CCC(=O)OC)C(=O)OC` (configuration not stated) (Boc-Glu(OMe)-[Phe(4-NO2)]-Glu(OMe)-OMe; configuration not given here), the GI50 with EKVX was > 100 µM (inactive); in the assay with A549, > 100 µM (inactive); in the assay with HT-29, 87.3 µM (inactive); in the assay with DU-145 it was > 100 µM (inactive); with CAKI-1, > 100 µM (inactive); with NCI/ADR-RES, > 100 µM (inactive). The GI50 with UACC-62, in the assay with MCF7, in the assay with Malme-3M, in the assay with NCI-H522, in the assay on ACHN and with IGROV-1 was > 100 µM (inactive) each time. The GI50 in the assay on PC-3, with HCC 2998, in the assay with A498 and in the assay with UO-31 was > 100 µM (inactive) each time.
Regarding `CCCCCCCCCCCCOC(=S)NC`, the GI50 with EKVX is 20.4 µM (inactive); with HT-29 it was 18.6 µM (inactive); in the assay with U-251, 18.3 µM (inactive); with UACC-62 it was 17.1 µM (inactive); in the assay with Malme-3M it was 21.6 µM (inactive); in the assay with NCI-H522, 27.5 µM (inactive). The GI50 in the assay on ACHN was 20 µM (inactive); with IGROV-1, 18 µM (inactive); in the assay on HCC 2998, 17.5 µM (inactive); in the assay with HL-60 it was 27.6 µM (inactive); in the assay with A498 it was 18.1 µM (inactive); in the assay on UO-31 it was 19 µM (inactive).
`CC(=O)/C(=C/n1c(=S)[nH]c2ccccc21)C(=O)Nc1ccccc1C`: the GI50 in the assay with EKVX, in the assay on BT-549, in the assay on A549, with HT-29, with DU-145 and in the assay with U-251 was > 100 µM (inactive) in each case. For the same compound, the GI50 in the assay with CAKI-1, with NCI/ADR-RES, in the assay on ACHN, in the assay with IGROV-1, with HCC 2998 and in the assay on HL-60 was > 100 µM (inactive) throughout. Besides, the GI50 with A498 and with UO-31 was > 100 µM (inactive) in each case.
As for `O=C1C/C(=C\c2ccccc2)C(=O)c2ccccc2N1`, the GI50 was 24.1 µM (inactive) in the assay with EKVX; 25.5 µM (inactive) with A549; 18.4 µM (inactive) in the assay with HT-29; 32.5 µM (inactive) with DU-145; 18.4 µM (inactive) in the assay with CAKI-1; 23.6 µM (inactive) with NCI/ADR-RES. Also, the GI50 in the assay on UACC-62 was 19.2 µM (inactive); in the assay with MCF7, 81.7 µM (inactive); in the assay with Malme-3M, 17.5 µM (inactive); in the assay with NCI-H522, 22.9 µM (inactive); in the assay on ACHN it was 25.1 µM (inactive); with IGROV-1, 18.6 µM (inactive). Further, the GI50 is 23.9 µM (inactive) with PC-3, 19 µM (inactive) with HCC 2998, 20.8 µM (inactive) in the assay on HL-60 and 18.8 µM (inactive) in the assay with A498.
`OC1NC2Nc3ccccc3NC2NC1O` (configuration not stated): the GI50 in the assay with EKVX, in the assay with A549, with HT-29, in the assay on DU-145, with U-251 and in the assay on CAKI-1 was > 100 µM (inactive) each time. In addition, the GI50 in the assay with NCI/ADR-RES, in the assay with UACC-62, with MCF7, in the assay with Malme-3M, in the assay with NCI-H522 and in the assay on ACHN was > 100 µM (inactive) throughout. For the same compound, the GI50 with IGROV-1, with PC-3, with HCC 2998, with HL-60 and with A498 was > 100 µM (inactive) throughout.
Take `CC(=O)/N=S(/NC(=O)c1ccc(C)cc1)C(Cl)(Cl)Cl` (configuration not stated): the GI50 is 44.5 µM (inactive) in the assay on EKVX; > 100 µM (inactive) with A549; 23.6 µM (inactive) in the assay on HT-29; > 100 µM (inactive) with DU-145; 22 µM (inactive) in the assay on U-251; 20.4 µM (inactive) in the assay on NCI/ADR-RES. Besides, the GI50 was 99.3 µM (inactive) in the assay with UACC-62; 51.9 µM (inactive) in the assay on MCF7; 29.6 µM (inactive) in the assay with Malme-3M; 41 µM (inactive) in the assay with ACHN; 38.6 µM (inactive) in the assay on IGROV-1; > 100 µM (inactive) in the assay on PC-3. The GI50 was 15.1 µM (inactive) in the assay on HCC 2998, 0.226 µM (active) in the assay with HL-60 and 26.1 µM (inactive) with UO-31.
With `Cn1c2ccccc2c(=O)c2c(O)cc3c(c21)C1OCC(C)(O)C1O3` (configuration not stated), the GI50 in the assay on EKVX was 7.48 µM (inactive); in the assay with A549, 61.8 µM (inactive); with HT-29 it was 31.8 µM (inactive); in the assay on DU-145, 29.2 µM (inactive); with U-251, 21.4 µM (inactive); with CAKI-1, 30.7 µM (inactive). Further, the GI50 in the assay with NCI/ADR-RES is 42.9 µM (inactive); in the assay with UACC-62, > 10 µM (inactive); in the assay on MCF7, 51.5 µM (inactive); in the assay on ACHN it was 67.8 µM (inactive); in the assay with IGROV-1 it was 25.3 µM (inactive); in the assay on PC-3, 44.7 µM (inactive). In addition, the values for the GI50 in the assay with HCC 2998, in the assay on HL-60 and in the assay on UO-31 were > 100 µM (inactive), 81.5 µM (inactive) and 5.4 µM (inactive), respectively.
